Source: PMC8760490, “Discovery of novel furanylbenzamide inhibitors that target oncogenic tyrosine phosphatase SHP2 in leukemia cells” (The Journal of Biological Chemistry, 2021)
“Also recorded” adds a separate entry of the source.

Columns and labels:
SHP2-E76K [1] = target: T1, SHP2-E76K (Homo sapiens, UniProt Q06124, E76K); experiment: Time-dependent inhibition (preincubation 1-60 min); type: biochemical; conditions: preincubation 1, 5, 10, 20 or 60 min with SHP2-E76K
T1 construct: Recombinant human full-length SHP2 (1–594) WT and E76K mutants; made in house
T1 sequence (Q06124 1-593 E76K): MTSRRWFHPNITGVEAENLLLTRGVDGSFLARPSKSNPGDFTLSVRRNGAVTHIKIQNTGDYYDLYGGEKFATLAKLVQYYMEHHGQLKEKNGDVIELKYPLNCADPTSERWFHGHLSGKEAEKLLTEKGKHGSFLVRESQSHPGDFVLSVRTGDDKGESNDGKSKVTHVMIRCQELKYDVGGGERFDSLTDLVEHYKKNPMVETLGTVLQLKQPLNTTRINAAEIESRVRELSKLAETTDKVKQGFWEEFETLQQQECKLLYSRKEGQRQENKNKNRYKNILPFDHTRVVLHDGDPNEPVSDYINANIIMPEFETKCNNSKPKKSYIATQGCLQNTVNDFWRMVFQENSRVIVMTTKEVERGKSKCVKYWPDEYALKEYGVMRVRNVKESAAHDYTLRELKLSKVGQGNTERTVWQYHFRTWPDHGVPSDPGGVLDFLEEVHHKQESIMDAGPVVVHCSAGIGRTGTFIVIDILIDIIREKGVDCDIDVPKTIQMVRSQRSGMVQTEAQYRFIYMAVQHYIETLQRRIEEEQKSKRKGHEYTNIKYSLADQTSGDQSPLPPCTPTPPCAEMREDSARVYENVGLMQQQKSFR
Method: PTPs contain a highly nucleophilic cysteine that is essential for catalytic activity but is susceptible to oxidation and covalent modifications, which abrogate its nucleophilic function and phosphatase activity ([26]). Because the methylenebenzothiophenone moiety of our inhibitors could potentially act as a Michael acceptor and thus covalently bind to the catalytic cysteine, we tested whether the observed inhibition of SHP2 was dependent on the preincubation time of inhibitor and enzyme. An irreversible covalent inhibitor may show time-dependent inhibition, with increased potency at longer incubation times. Conversely, the potency of a noncovalent inhibitor is expected to be insensitive to the time it is incubated with the enzyme. To test for time-dependent inhibition, SBI-2130 at ten different concentrations was preincubated with SHP2-E76K for 1, 5, 10, 20, or 60 min, before the DiFMUP substrate was added to the reaction mixture and initial rates were recorded (Fig. 3C). […] In addition, we used mass spectrometry to test whether inhibitor:protein adducts are being formed. Specifically, we incubated SHP2cat (5 μM) with SBI-4668 (100 μM) in assay buffer for various times (1, 5, 20, and 60 min) before trypsin proteolysis and subsequent mass spectrometry analysis. […] Finally, we performed a jump-dilution experiment to test for irreversible inhibition of SHP2. […]

SHP2-E76K [2] = target: T1, SHP2-E76K; experiment: Michaelis–Menten kinetics and mode of inhibition; type: biochemical
Text: We previously reported furanylsalicylic acids as potent and selective inhibitors of the Yersinia tyrosine phosphatase YopH ([37], [38]). […] Thus, we tested whether replacement of the neutral 2-hydroxybenzamide moiety with the negatively charged salicylate would be beneficial for the potency of this scaffold against SHP2. […] To corroborate this postulate, we subjected SBI-4668 to Michaelis–Menten kinetic studies with SHP2-E76K to determine its mode of inhibition (Fig. 3, A and B). Using nonlinear regression, initial rates at various inhibitor and substrate concentrations were fitted to the Michaelis–Menten equations for competitive, noncompetitive, uncompetitive, and mixed inhibitions. Fitting models were then compared using Akaike's Information Criterion (AIC), and inhibition mode probabilities were calculated from the differences between the corresponding second-order corrected AIC scores as previously described ([38], [39]).
SBI-4668 was tested with SHP2-E76K using a similar assay format as described previously. SBI-4668 or vehicle (DMSO) was spotted in triplicate into a black Greiner FLUOTRAC 200 384-well microplate (catalog no.: #781076; Greiner) using an Echo 555 Liquid Handler (Labcyte, Inc). […] Fluorescence intensity was measured in kinetic mode as described previously. The initial rates were determined from the linear progression curves of each SHP2-E76K reaction. […]

BT-549 TNBC cells = experiment: TNBC cell viability (CellTiter-Glo), BT-549; type: cell-based; conditions: Homo sapiens, BT-549; 72 h per text; 5 days per legend and method
Method: Inhibition of SHP2 has been reported to inhibit the growth of cancer cells including Kasumi-1 acute myeloid leukemia (AML) and KYSE-520 esophageal cancer cells ([30]). […] Thus, we treated two TNBC cell lines, BT-549 and MDA-MB-468, with SBI-4668 or the SHP2 allosteric inhibitor SHP099 at various concentrations and determined cell viability after 72 h, compared with the vehicle control (Fig. 4C). […] Next, we performed an 11-day colony formation assay with TNBC cells treated with SBI-4668 or SHP099 at 5, 10, or 20 μM (Fig. 4D).
Triple-negative breast cancer cell viability was assessed using the ATP-depletion assay CellTiter-Glo. Briefly, 2500 cells in 25 μl media (RPMI + 10% FBS + 1× penicillin–streptomycin [Omega Scientific]) were seeded per well of a 384-well tissue culture–treated plate (Greiner). About 25 nl of 1000× test compound were added using a Labcyte Echo acoustic dispenser, and the cells were incubated for 5 days before addition of 10 μl of CellTiter-Glo reagent as described by the manufacturer. Luminescence was detected on a BioTek Synergy 2 microplate reader, and the values normalized to those of vehicle (DMSO)-treated controls before being plotted using GraphPad Prism.

Compound | time-dependent inhibition (SHP2-E76K [1]) | mode of inhibition (SHP2-E76K [2]; AIC model comparison) | Ki (SHP2-E76K [2]; DiFMUP, read-out: inhibition constant (Ki) for noncompetitive inhibition) | IC50 (BT-549 TNBC cells)
Nc1ccc(NC(=O)c2cc(-c3ccc(/C=C4\Sc5ccccc5C4=O)o3)ccc2O)cc1 [SBI-2130, (Z)-N-(4-Aminophenyl)-2-hydroxy-5-(5-((3-oxobenzo[b]thiophen-2(3H)-ylidene)methyl)furan-2-yl)benzamide] | No time-dependent inhibition; also recorded: not time dependent |  |  | 
O=C(Nc1ccccc1)c1cc(-c2ccc(/C=C3\Sc4ccccc4C3=O)o2)ccc1O [SBI-4668, (Z)-2-Hydroxy-5-(5-((3-oxobenzo[b]thiophen-2(3H)-ylidene)methyl)furan-2-yl)-N-phenylbenzamide] |  | either a noncompetitive or a mixed inhibition mechanism | 1.8 µM | 5.4 µM
